Measurements: ChEMBL document CHEMBL4433241, “Potential of ROCK Inhibitors as Treatment for Cardiovascular Diseases, Cancer, and More” (ACS Med Chem Lett, 2019)

molecular target: Rho-associated protein kinase 2 (Homo sapiens, UniProt O75116); assay: Inhibition of ROCK2 (unknown origin) using FITC-AHA-AKRRRLSSLRA-OH substrate and ATP
Sequence (O75116 whole entry): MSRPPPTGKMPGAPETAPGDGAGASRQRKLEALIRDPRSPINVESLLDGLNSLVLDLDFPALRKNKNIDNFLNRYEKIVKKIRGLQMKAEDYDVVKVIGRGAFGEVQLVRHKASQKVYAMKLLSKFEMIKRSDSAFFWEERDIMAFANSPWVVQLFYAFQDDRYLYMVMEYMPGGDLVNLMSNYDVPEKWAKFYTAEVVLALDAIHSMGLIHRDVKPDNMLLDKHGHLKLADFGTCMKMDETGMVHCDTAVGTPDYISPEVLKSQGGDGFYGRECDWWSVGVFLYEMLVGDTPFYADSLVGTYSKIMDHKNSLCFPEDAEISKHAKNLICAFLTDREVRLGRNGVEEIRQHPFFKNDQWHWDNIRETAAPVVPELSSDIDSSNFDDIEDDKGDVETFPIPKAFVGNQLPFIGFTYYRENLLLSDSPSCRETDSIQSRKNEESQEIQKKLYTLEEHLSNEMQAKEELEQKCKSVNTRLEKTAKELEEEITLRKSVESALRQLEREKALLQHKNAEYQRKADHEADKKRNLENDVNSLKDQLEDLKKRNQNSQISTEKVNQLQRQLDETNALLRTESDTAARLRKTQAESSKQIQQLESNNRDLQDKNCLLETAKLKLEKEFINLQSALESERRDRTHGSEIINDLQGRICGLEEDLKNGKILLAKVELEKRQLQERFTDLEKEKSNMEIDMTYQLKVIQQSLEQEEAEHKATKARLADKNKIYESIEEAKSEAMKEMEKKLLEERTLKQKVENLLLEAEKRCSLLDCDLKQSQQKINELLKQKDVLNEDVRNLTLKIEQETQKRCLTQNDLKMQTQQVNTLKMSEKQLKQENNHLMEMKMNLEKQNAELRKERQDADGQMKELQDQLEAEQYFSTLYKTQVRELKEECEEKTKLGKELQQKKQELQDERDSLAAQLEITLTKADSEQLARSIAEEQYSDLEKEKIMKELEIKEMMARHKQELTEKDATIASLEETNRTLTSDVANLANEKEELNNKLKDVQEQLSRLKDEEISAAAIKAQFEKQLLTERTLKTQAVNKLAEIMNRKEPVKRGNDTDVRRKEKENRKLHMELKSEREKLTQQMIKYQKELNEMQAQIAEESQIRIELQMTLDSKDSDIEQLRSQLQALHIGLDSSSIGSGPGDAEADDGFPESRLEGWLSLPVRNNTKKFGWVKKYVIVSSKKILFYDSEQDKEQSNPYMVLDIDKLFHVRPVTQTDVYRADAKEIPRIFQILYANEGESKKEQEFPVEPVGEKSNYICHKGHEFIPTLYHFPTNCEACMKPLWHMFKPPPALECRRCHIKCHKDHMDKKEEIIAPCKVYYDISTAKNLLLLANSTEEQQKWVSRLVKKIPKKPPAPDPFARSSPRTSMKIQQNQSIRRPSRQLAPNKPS

In order of falling IC50:
1. N#Cc1cnc(NC2CC3(C2)CC(Oc2ncccc2C(N)=O)C3)nc1 (stereo not given)  1510 nM
2. NC(=O)c1cccnc1OC1CC2(CC(Nc3nc4c(Cl)cccc4s3)C2)C1 (stereo not given)  76 nM
3. COc1ccc2ncnc(NC3CC4(C3)CC(Oc3ncccc3C(N)=O)C4)c2c1 (stereo not given)  62 nM
4. COc1ccc2c(NC3CC4(C3)CC(Oc3ncccc3C(N)=O)C4)nccc2c1 (stereo not given)  17 nM
5. COc1cnc(NC2CC3(C2)CC(Oc2ncccc2C(N)=O)C3)c2cc(Cl)ccc12 (stereo not given)  15 nM
